From patent US11028113B2, “Cyphomycin, compositions and uses thereof” (Wisconsin Alumni Research Foundation, priority 2018, dated 2021)
Values after ≈ are worked out from the molar mass of the structure shown.

What was measured:
Assay type in all cases: cell-based
[1] = test system: Candida glabrata 4720; assay: In vitro MIC susceptibility testing, broth microdilution (CLSI M27-A3); settings: Nakaseomyces glabratus; Candida glabrata 4720, Echinocandin resistance phenotype; 50% reduction in growth turbidity at 600 nm; median of replicate assays; read-out: Cyphomycin MIC
Description: (§1) In vitro MIC susceptibility testing. MICs of Cyphomycin for the Candida isolates were determined using a broth microdilution method in accordance with the guidelines presented in Clinical and Laboratory Standards Institute (CLSI) document M27-A3 for Candida and M38-A2 for Aspergillus^36,38. MIC values of cyphomycin were defined as the lowest concentration at which a prominent decrease in growth turbidity (i.e., 50% reduction in growth determined spectrophotometrically) relative to the turbidity of the compound-free control at 600 nm was observed. Median MIC from replicate assays is reported. Results are shown in Table 1 for cyphomycin activity against drug-resistant fungi.

[2] = test system: Candida auris B11211; assay: as above; settings: Candidozyma auris; Candida auris B11211, Amphotericin B resistance phenotype; 50% reduction in growth turbidity at 600 nm; median of replicate assays; read-out: Cyphomycin MIC
Description: as §1

[3] = test system: Aspergillus fumigatus 11628; assay: In vitro MIC susceptibility testing, broth microdilution (CLSI M38-A2); settings: Aspergillus fumigatus 11628, Triazole resistance phenotype; 50% reduction in growth turbidity at 600 nm; median of replicate assays; read-out: Cyphomycin MIC
Description: as §1

Structure (SMILES): CCC(OC1CC(C)(O)C(OC2CCC(OC(=O)C(C)C(O)c3ccc4c(c3)C(=O)C=C(C)C4=O)C(C)O2)C(C)O1)C(C)C(O)C(C)C(O)C(C)C1OC(=O)/C=C/C(C)C(O)CC(O)CCCC(O)CCC(C)C(O)C(=O)C2(O)CC(O)CC(CC(O)CC(O)CC(O)CCCC(O)/C=C/C1C)O2 (stereo not drawn) [Cyphomycin, cyphomycin]
- MIC [1]: 0.5 µg/mL (≈ 0.342 µM)
- MIC [2]: 4 µg/mL (≈ 2.73 µM)
- MIC [3]: 0.5 µg/mL (≈ 0.342 µM)
